Assay results taken from US9101616B2, “Aryl substituted carboxamide derivatives as calcium or sodium channel blockers” (RaQualia Pharma Inc., priority 2009, dated 2015).

Target: T1, human T-type channel alpha-1H (CaV 3.2) (Homo sapiens, UniProt O95180)
T1 construct: expressed in transfected cells; host or cells: HEK 293
Assay: Ca2+ Influx Assay (cell-based fluorescent, FDSS)
Details: HEK 293 cells expressing human CaV 3.2
Procedure: Inhibition of T-type calcium channel activity was determined by cell-based flu-orescent Ca^2+ influx assay, in which potassium ionophore was added to decrease resting membrane potential and extra-cellular high-K^+ stimulation was used to modulate the membrane potential of the cell. The changes in fluorescent signal were monitored by the cell imaging technology by Hamamatsu Photonics's Functional Drug Screening System (FDSS).
HEK 293 cells expressing the human T-type channel alpha-1H (CaV 3.2) were maintained in DMEM supplemented with 10% heat-inactivated FBS, 100 units/ml Penicillin, 100 microg/ml Streptomycin, 150 microg/ml Zeocin, 300 microg/ml Geneticin. The cells were grown in a 5% CO2 humidified incubator at 37° C.
• 1. Cells were harvested and seeded in a poly-D-lysine coated black-sided clear bottom 384-well plate at density of 10,000 cells/well at 24 hours prior to assay. • 2. Incubate at 37° C. in 5% CO2. Day Two: • 1. Wash each well with assay buffer (see below) and leave 20 RI using plate washer, ELx-405 Select CW (BIO-TEK). • 2. Add 20 μL of assay buffer containing 6 μM Fluo-4-AM (Molecular Probes) and 0.005% Pluronic F-127 to each well. • 3. Incubate the plate at 37° C. for 1 hour. • 4. Wash each well assay buffer (see below) and leave 20 μl using plate washer, ELx-405 Select CW (BIO-TEK). • 5. Add 10 μl of compound solution into each well by FDSS6000 and leave the plate for 4.5 min, and then add 10 μl of potassium ionophore solution. • 6. Add 20 μl of high-K^+ depolarizing solution (see below) and monitor the change of fluorescent signal.
The IC50 values for compounds of the present invention were determined from 7-point dose-response studies. Curves were generated using the average of duplicate wells for each data point. Finally, the IC50 values are calculated with the best-fit dose curve determined by XLfit.

T1 sequence (O95180 whole entry): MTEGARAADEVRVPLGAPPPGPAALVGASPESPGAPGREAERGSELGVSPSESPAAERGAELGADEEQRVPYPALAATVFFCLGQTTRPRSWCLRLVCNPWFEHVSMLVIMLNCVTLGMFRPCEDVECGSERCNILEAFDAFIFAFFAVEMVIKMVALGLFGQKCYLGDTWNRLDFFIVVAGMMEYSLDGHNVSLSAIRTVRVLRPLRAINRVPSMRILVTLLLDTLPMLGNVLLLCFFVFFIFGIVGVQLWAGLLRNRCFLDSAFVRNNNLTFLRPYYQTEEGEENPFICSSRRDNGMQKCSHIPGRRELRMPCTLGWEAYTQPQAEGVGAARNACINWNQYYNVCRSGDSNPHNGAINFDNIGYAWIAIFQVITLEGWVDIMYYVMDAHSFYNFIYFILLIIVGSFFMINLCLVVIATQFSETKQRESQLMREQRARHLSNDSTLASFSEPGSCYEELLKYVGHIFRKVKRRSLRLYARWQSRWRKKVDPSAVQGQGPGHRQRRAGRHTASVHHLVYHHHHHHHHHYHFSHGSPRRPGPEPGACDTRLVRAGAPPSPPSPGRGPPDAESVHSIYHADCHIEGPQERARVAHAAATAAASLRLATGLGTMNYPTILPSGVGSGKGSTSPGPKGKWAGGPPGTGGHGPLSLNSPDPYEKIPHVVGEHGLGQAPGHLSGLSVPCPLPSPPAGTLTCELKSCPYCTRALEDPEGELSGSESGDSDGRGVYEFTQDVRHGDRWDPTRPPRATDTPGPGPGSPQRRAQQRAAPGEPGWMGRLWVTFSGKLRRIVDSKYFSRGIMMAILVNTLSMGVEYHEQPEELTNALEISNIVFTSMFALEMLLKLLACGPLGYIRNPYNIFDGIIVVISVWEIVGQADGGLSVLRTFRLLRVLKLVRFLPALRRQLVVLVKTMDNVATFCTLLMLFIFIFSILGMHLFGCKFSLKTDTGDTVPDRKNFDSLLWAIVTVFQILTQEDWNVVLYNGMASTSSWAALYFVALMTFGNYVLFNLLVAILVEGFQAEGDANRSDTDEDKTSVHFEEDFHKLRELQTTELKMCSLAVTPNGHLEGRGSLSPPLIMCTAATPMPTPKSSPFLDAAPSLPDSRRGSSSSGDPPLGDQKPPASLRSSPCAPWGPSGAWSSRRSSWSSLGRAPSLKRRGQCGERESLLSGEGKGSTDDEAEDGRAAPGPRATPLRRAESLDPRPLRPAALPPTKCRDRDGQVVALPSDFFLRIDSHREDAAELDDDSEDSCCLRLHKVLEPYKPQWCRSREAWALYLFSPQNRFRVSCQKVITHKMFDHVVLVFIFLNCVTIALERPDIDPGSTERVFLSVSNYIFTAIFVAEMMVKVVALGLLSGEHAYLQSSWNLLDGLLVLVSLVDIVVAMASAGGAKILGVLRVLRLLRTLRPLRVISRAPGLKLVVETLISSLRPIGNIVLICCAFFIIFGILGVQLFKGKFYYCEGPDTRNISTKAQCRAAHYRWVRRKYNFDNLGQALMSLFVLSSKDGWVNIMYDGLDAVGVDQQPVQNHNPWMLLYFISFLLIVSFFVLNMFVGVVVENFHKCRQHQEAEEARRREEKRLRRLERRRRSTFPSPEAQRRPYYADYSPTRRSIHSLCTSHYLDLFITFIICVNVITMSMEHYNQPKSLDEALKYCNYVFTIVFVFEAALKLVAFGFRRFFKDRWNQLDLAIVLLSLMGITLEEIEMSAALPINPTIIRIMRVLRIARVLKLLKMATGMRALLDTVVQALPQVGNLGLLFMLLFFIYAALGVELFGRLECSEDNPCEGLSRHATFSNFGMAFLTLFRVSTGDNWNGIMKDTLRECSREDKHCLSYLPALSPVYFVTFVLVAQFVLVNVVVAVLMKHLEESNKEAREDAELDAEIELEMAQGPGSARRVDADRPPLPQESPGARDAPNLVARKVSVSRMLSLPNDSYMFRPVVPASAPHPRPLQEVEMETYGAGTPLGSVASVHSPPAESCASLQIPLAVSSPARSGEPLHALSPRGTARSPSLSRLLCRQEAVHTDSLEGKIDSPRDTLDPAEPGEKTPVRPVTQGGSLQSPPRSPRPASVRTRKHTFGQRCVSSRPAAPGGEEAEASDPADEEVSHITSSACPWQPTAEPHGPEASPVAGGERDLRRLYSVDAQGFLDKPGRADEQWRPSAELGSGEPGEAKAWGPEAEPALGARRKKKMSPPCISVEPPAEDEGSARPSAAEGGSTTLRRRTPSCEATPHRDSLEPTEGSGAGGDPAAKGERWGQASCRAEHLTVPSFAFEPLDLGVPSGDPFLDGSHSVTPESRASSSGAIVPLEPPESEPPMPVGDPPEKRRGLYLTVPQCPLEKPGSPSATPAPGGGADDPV

Q: For `COc1ccc([C@H]2C[C@@H]2C(=O)N[C@H](C)c2ccc(OCC(F)(F)F)cn2)c(F)c1` (relative stereo) [Example 248, (1S*,2S*)-2-(2-fluoro-4-methoxyphenyl)-N-((R)-1-(5-(2,2,2-trifluoroethoxy)pyridin-2-yl)ethyl)cyclopropanecarboxamide], which IC50 is on record?
A: ≤ 300 nM

Q: `C[C@@H](NC(=O)[C@H]1C[C@@H]1c1c(F)cc(F)cc1F)c1ccc(OCC(F)(F)F)cn1` (relative stereo) [Example 250, (1S*,2S*)-N-((R)-1-(5-(2,2,2-trifluoroethoxy)pyridin-2-yl)ethyl)-2-(2,4,6-trifluorophenyl) cyclopropanecarboxamide] was tested. Which IC50 did it give?
A: ≤ 300 nM

Q: How did the IC50 turn out when `Cc1cccc([C@H]2C[C@@H]2C(=O)N[C@H](C)c2ccc(OCC(F)(F)F)cn2)c1` (relative stereo) [Example 251, (1S*,2S*)-2-m-tolyl-N-((R)-1-(5-(2,2,2-trifluoroethoxy)pyridin-2-yl)ethyl)cyclopropanecarboxamide] was run?
A: ≤ 300 nM

Q: `C[C@@H](NC(=O)[C@H]1C[C@@H]1c1cc(F)cc(F)c1)c1ccc(OCC(F)(F)F)cn1` (relative stereo) [Example 253, (1S*,2S*)-2-(3,5-difluorophenyl)-N-((R)-1-(5-(2,2,2-trifluoroethoxy)pyridin-2-yl)ethyl)cyclopropanecarboxamide] was tested. Which IC50 did it give?
A: ≤ 300 nM

Q: `COc1cccc([C@H]2C[C@@H]2C(=O)N[C@H](C)c2ccc(OCC(F)(F)F)cn2)c1` (relative stereo) [Example 258, (1S*,2S*)-2-(3-methoxyphenyl)-N-((R)-1-(5-(2,2,2-trifluoroethoxy)pyridin-2-yl)ethyl)cyclopropanecarboxamide] was tested. Which IC50 did it give?
A: ≤ 300 nM

Q: `COc1ccc([C@H]2C[C@@H]2C(=O)N[C@H](C)c2ccc(OCC(F)(F)F)cn2)cc1` (relative stereo) [Example 259, (1S*,2S*)-2-(4-methoxyphenyl)-N-((R)-1-(5-(2,2,2-trifluoroethoxy)pyridin-2-yl)ethyl)cyclopropanecarboxamide] was tested. Which IC50 did it give?
A: ≤ 300 nM

Q: How did the IC50 turn out when `C[C@@H](NC(=O)[C@@H]1C[C@H]1c1nc2ccccc2[nH]1)c1ccc(OCC(F)(F)F)cn1` (relative stereo) [Example 260, (1R*,2R*)-2-(1H-benzo[d]imidazol-2-yl)-N-((R)-1-(5-(2,2,2-trifluoroethoxy)pyridin-2-yl)ethyl)cyclopropanecarboxamide] was run?
A: ≤ 300 nM

Q: How did the IC50 turn out when `C[C@@H](NC(=O)[C@H]1C[C@@H]1c1ccc(F)cc1Cl)c1ccc(OCC2CC2)cn1` (relative stereo) [Example 261, (1S*,2S*)-2-(2-chloro-4-fluorophenyl)-N-((R)-1-(5-(cyclopropylmethoxy)pyridin-2-yl)ethyl)cyclopropanecarboxamide] was run?
A: ≤ 300 nM

Q: With `COc1ccc([C@H]2C[C@@H]2C(=O)N[C@H](C)c2ccc(OCC3CC3)cn2)c(F)c1` (relative stereo) [Example 263, (1S*,2S*)-N-((R)-1-(5-(cyclopropylmethoxy)pyridin-2-yl)ethyl)-2-(2-fluoro-4-methoxy-phenyl)cyclopropanecarboxamide] as the compound, how does the IC50 read?
A: ≤ 300 nM

Q: For `C[C@@H](NC(=O)[C@@H]1C[C@H]1c1c(F)cc(F)cc1F)c1ccc(OCC2CC2)cn1` (relative stereo) [Example 266], which IC50 is on record?
A: ≤ 300 nM

Q: For `Cc1cccc([C@H]2C[C@@H]2C(=O)N[C@H](C)c2ccc(OCC3CC3)cn2)c1` (relative stereo) [Example 267, (1S*,2S*)-N-((R)-1-(5-(cyclopropylmethoxy)pyridin-2-yl)ethyl)-2-m-tolylcyclopropanecarboxamide], which IC50 is on record?
A: ≤ 300 nM

Q: `C[C@@H](NC(=O)[C@H]1C[C@@H]1c1ccc(F)cc1Cl)c1cnc(OCC(F)(F)F)cn1` (relative stereo) [Example 268, (1S*,2S*)-2-(2-chloro-4-fluorophenyl)-N-((R)-1-(5-(2,2,2-trifluoroethoxy)pyrazin-2-yl)ethyl)cyclopropanecarboxamide] was tested. Which IC50 did it give?
A: ≤ 300 nM

Q: Which IC50 does the source give for `COc1ccc([C@H]2C[C@@H]2C(=O)N[C@H](C)c2cnc(OCC(F)(F)F)cn2)c(F)c1` (relative stereo) [Example 270, (1S*,2S*)-2-(2-fluoro-4-methoxyphenyl)-N-((R)-1-(5-(2,2,2-trifluoroethoxy)pyrazin-2-yl)ethyl)cyclopropanecarboxamide] here?
A: ≤ 300 nM

Q: Which IC50 does the source give for `C[C@@H](NC(=O)[C@H]1C[C@@H]1c1c(F)cc(F)cc1F)c1cnc(OCC(F)(F)F)cn1` (relative stereo) [Example 271, (1S*,2S*)-N-((R)-1-(5-(2,2,2-trifluoroethoxy)pyrazin-2-yl)ethyl)-2-(2,4,6-trifluorophenyl) cyclopropanecarboxamide] here?
A: ≤ 300 nM

Q: For `Cc1cccc([C@H]2C[C@@H]2C(=O)N[C@H](C)c2cnc(OCC(F)(F)F)cn2)c1` (relative stereo) [Example 273, (1S*,2S*)-2-m-tolyl-N-((R)-1-(5-(2,2,2-trifluoroethoxy)pyrazin-2-yl)ethyl)cyclopropanecarboxamide], which IC50 is on record?
A: ≤ 300 nM

Q: For `C[C@@H](NC(=O)[C@H]1C[C@@H]1c1cccc2cc[nH]c12)c1ccc(OCC(F)(F)F)cn1` (relative stereo) [Example 275, (1S*,2S*)-2-(1H-indol-7-yl)-N-((R)-1-(5-(2,2,2-trifluoroethoxy)pyridin-2-yl)ethyl)cyclopropanecarboxamide], which IC50 is on record?
A: ≤ 300 nM

Q: How did the IC50 turn out when `C[C@@H](NC(=O)[C@@H]1C[C@H]1c1cccc2cc[nH]c12)c1ccc(OCC(F)(F)F)cn1` (relative stereo) [Example 276, (1R*,2R*)-2-(1H-indol-7-yl)-N-((R)-1-(5-(2,2,2-trifluoroethoxy)pyridin-2-yl)ethyl)cyclopropanecarboxamide] was run?
A: ≤ 300 nM

Q: Which IC50 does the source give for `C[C@@H](NC(=O)[C@@H]1C[C@H]1c1cccc2[nH]ccc12)c1ccc(OCC(F)(F)F)cn1` (relative stereo) [Example 277, (1R*,2R*)-2-(1H-indol-4-yl)-N-((R)-1-(5-(2,2,2-trifluoroethoxy)pyridin-2-yl)ethyl)cyclopropanecarboxamide] here?
A: ≤ 300 nM

Q: For `C[C@@H](NC(=O)[C@@H]1C[C@H]1c1cccc2[nH]ccc12)c1cnc(OCC(F)(F)F)cn1` (relative stereo) [Example 279, (1R*,2R*)-2-(1H-Indol-4-yl)-N-((R)-1-(5-(2,2,2-trifluoroethoxy)pyrazin-2-yl)ethyl)cyclopropanecarboxamide], which IC50 is on record?
A: ≤ 300 nM

Q: Which IC50 does the source give for `C[C@@H](NC(=O)[C@H]1C[C@@H]1c1ccccc1)c1ccc(OCC(F)(F)F)cn1` (relative stereo) [Example 280, (1S*,2S*)-2-phenyl-N-((R)-1-(5-(2,2,2-trifluoroethoxy)pyridin-2-yl)ethyl)cyclopropanecarboxamide] here?
A: ≤ 300 nM

Q: `C[C@@H](NC(=O)[C@H]1C[C@@H]1c1ccccc1)c1cnc(OCC(F)(F)F)cn1` (relative stereo) [Example 282, (1S*,2S*)-2-phenyl-N-((R)-1-(5-(2,2,2-trifluoroethoxy)pyrazin-2-yl)ethyl)cyclopropanecarboxamide] was tested. Which IC50 did it give?
A: ≤ 300 nM

Q: With `C[C@@H](NC(=O)[C@H]1C[C@@H]1c1ccccc1)c1ccc(OCC(F)(F)F)nc1` (relative stereo) [Example 284, (1S*,2S*)-2-phenyl-N-((R)-1-(6-(2,2,2-trifluoroethoxy)pyridin-3-yl)ethyl)cyclopropanecarboxamide] as the compound, how does the IC50 read?
A: ≤ 300 nM

Q: Which IC50 does the source give for `C[C@@H](NC(=O)[C@H]1C[C@@H]1c1nc2ccccc2[nH]1)c1cnc(OCC(F)(F)F)cn1` (relative stereo) [Example 286, (1S*,2S*)-2-(1H-benzo[d]imidazol-2-yl)-N-((R)-1-(5-(2,2,2-trifluoroethoxy)pyrazin-2-yl)ethyl)cyclopropanecarboxamide] here?
A: ≤ 300 nM

Q: Which IC50 does the source give for `C[C@@H](NC(=O)[C@H]1C[C@@H]1c1nc2ccccc2[nH]1)c1ccc(OCC(F)(F)F)nc1` (relative stereo) [Example 287, (1S*,2S*)-2-(1H-benzo[d]imidazol-2-yl)-N-((R)-1-(6-(2,2,2-trifluoroethoxy)pyridin-3-yl)ethyl)cyclopropanecarboxamide] here?
A: ≤ 300 nM

Q: For `C[C@@H](NC(=O)[C@@H]1C[C@H]1c1nc2cc(F)ccc2[nH]1)c1ccc(OCC(F)(F)F)nc1` (relative stereo) [Example 289, (1R*,2R*)-2-(5-fluoro-1H-benzo[d]imidazol-2-yl)-N-((R)-1-(6-(2,2,2-trifluoroethoxy)pyridin-3-yl)ethyl) cyclopropanecarboxamide], which IC50 is on record?
A: ≤ 300 nM

Q: With `C[C@@H](NC(=O)[C@H]1C[C@@H]1COc1cccc(F)c1)c1ccc(OCC(F)(F)F)cn1` (relative stereo) [Example 294, (1S*,2S*)-2-((3-fluorophenoxy)methyl)-N-((R)-1-(5-(2,2,2-trifluoroethoxy)pyridin-2-yl)ethyl)cyclopropanecarboxamide] as the compound, how does the IC50 read?
A: ≤ 300 nM

Q: How did the IC50 turn out when `C[C@@H](NC(=O)[C@H]1C[C@@H]1COc1ccc(F)cc1)c1ccc(OCC(F)(F)F)cn1` (relative stereo) [Example 296, (1S*,2S*)-2-((4-fluorophenoxy)methyl)-N-((R)-1-(5-(2,2,2-trifluoroethoxy)pyridin-2-yl)ethyl)cyclopropanecarboxamide] was run?
A: ≤ 300 nM
